In US20230157290A1, “ALKENE-CONTAINING CARBOXYLATE COMPOUND AND USE THEREOF” (SHENYANG SINOCHEM AGROCHEMICALS R&D CO., LTD, priority 2019, published 2023):

How the values were obtained:
Type in all cases: in vivo
Conditions in all cases: after emergence
piemarker = experiment: Herbicidal activity, post-emergence stem and leaf spray, greenhouse: piemarker control
Procedure: (§1) Seeds of broadleaf weeds (zinnia and piemarker) or grassy weeds (green bristlegrass and barnyard grass) were respectively sown in a paper cup having a diameter of 7 cm and containing nutrient soil; after sowing, the seeds were covered with 1 cm of soil, the soil was pressed and watered, and then the seeds were cultivated in a greenhouse according to a conventional method; and stems and leaves were sprayed after 2-3 leaf stage of the weeds.
(§2) After the original medicinal acetone was dissolved, the test requires to use 1‰ of Tween 80 to stand in running water to prepare the solution to be tested with a required concentration. According to the design dose of the test, spray treatment was carried out on a track-type crop sprayer (designed and produced by British Engineer Research Ltd.) (spray pressure is 1.95 kg/cm^2, spray volume is 500 L/hm^2 and track speed is 1.48 km/h). The test was repeated for three times. The test material was treated and then placed in an operation hall. The medicinal liquid was naturally dried in the shade, and then was placed in a greenhouse and managed according to the conventional method. The response of the weeds to the drug was observed and recorded. After treatment, the control effects of the test drug on the weeds were visually inspected regularly, expressed by 0-100%. “0” represents no control effect and “100%4” represents complete killing.
According to the above test method, part of the compounds of the formula and KC1 are selected for activity test of controlling the piemarker.

zinnia = experiment: Herbicidal activity, post-emergence stem and leaf spray, greenhouse: zinnia control
Procedure: as §1, §2
According to the above test method, part of the compounds of the formula I and KC1 are selected for activity test of controlling the zinnia.

barnyard grass = experiment: Herbicidal activity, post-emergence stem and leaf spray, greenhouse: barnyard grass control
Procedure: as §1, §2
According to the above test method, part of the compounds of the formula I and KC1 or KC2 are selected for activity test of controlling the barnyard grass.

green bristlegrass = experiment: Herbicidal activity, post-emergence stem and leaf spray, greenhouse: green bristlegrass control
Procedure: as §1, §2
According to the above test method, part of the compounds of the formula I and KC1 or KC2 are selected for activity test of controlling the green bristlegrass.

[1] = dose 600 g a.i./hm^2, visual, 0 = no control effect, 100% = complete killing

SMILES | Piemarker control activity (control effect %) (piemarker; dose 37.5 g a.i./hm^2) [%] | Piemarker control activity (control effect %) (piemarker; dose 150 g a.i./hm^2) [%] | Piemarker control activity (control effect %) (piemarker; dose 600 g a.i./hm^2) [%] | Zinnia control activity (control effect %) (zinnia; dose 37.5 g a.i./hm^2) [%] | Zinnia control activity (control effect %) (zinnia; dose 150 g a.i./hm^2) [%] | Zinnia control activity (control effect %) (zinnia; [1]) [%] | Barnyard grass control activity (control effect %) (barnyard grass; dose 37.5 g a.i./hm^2) [%] | Barnyard grass control activity (control effect %) (barnyard grass; dose 150 g a.i./hm^2) [%] | Barnyard grass control activity (control effect %) (barnyard grass; dose 600 g a.i./hm^2) [%] | Green bristlegrass control activity (control effect %) (green bristlegrass; dose 37.5 g a.i./hm^2) [%] | Green bristlegrass control activity (control effect %) (green bristlegrass; dose 150 g a.i./hm^2) [%] | Green bristlegrass control activity (control effect %) (green bristlegrass; dose 600 g a.i./hm^2) [%]
Cc1nn(C)c(OC(=O)/C=C/c2ccccc2)c1C(=O)c1ccc(C(F)(F)F)cc1S(C)(=O)=O [Compound 1-1] | 90 | 95 | 100 |  |  |  |  |  |  |  |  | 
Cc1c(S(C)(=O)=O)ccc(C(=O)c2cnn(C)c2OC(=O)/C=C/c2ccc3c(c2)OCO3)c1Cl [Compound 1-42] | 90 | 95 | 100 | 100 | 100 | 100 | 80 | 95 | 100 |  |  | 
COCCOCc1c(S(C)(=O)=O)ccc(C(=O)c2c(C)nn(C)c2OC(=O)/C=C/c2ccc(-c3ccccc3)cc2)c1Cl [Compound 1-81] |  |  |  | 90 | 95 | 100 | 80 | 90 | 95 |  |  | 
COCCOCc1c(S(C)(=O)=O)ccc(C(=O)c2c(C)nn(C)c2OC(=O)/C=C/c2ccc3c(c2)OCO3)c1Cl [Compound 1-82] |  |  |  |  |  |  | 90 | 95 | 100 |  |  | 
COCCOc1c(S(C)(=O)=O)ccc(C(=O)c2c(C)nn(C)c2OC(=O)/C=C/c2ccccc2)c1C [Compound 1-259] | 100 | 100 |  |  |  |  | 100 | 100 |  | 100 | 100 | 
CCOc1c(S(C)(=O)=O)ccc(C(=O)c2c(C)nn(C)c2OC(=O)/C=C/c2ccccc2)c1C [Compound 1-280] |  |  |  |  |  |  | 85 | 95 | 100 | 80 | 90 | 100
Cc1c(C(=O)c2cnn(C)c2OC(=O)/C=C/c2ccccc2)ccc(S(C)(=O)=O)c1C1=NOCC1 [Compound 1-292] | 90 | 90 | 95 |  |  |  | 90 | 95 | 100 | 90 | 90 | 95
Cc1nn(C)c(OC(=O)C2=CCCCC2)c1C(=O)c1ccc(S(C)(=O)=O)c(OCC(F)(F)F)c1C [Compound 2-37] |  |  |  |  |  |  | 95 | 100 | 100 |  |  | 
COCCOc1c(S(C)(=O)=O)ccc(C(=O)c2cnn(C)c2OC(=O)C2=CCCCC2)c1C [Compound 2-67] |  |  |  |  |  |  | 90 | 100 | 100 |  |  | 
Cc1nn(C)c(OC(=O)C2=CCCCC2)c1C(=O)c1ccc(S(C)(=O)=O)c(OCC2CCCO2)c1C (stereo not shown) [Compound 2-73] |  |  |  |  |  |  | 95 | 100 | 100 |  |  | 
Cc1c(C(=O)c2cnn(C)c2OC(=O)C2=CCCCC2)ccc(S(C)(=O)=O)c1C1=NOCC1 [Compound 2-121] |  |  |  |  |  |  |  |  |  | 80 | 90 | 98
Cc1c(C(=O)c2cnn(C)c2OC(=O)C2=CCCC2)ccc(S(C)(=O)=O)c1C1=NOCC1 [Compound 2-123] |  |  |  |  |  |  | 100 | 100 | 100 | 90 | 100 | 100
Cc1nn(C)c(OC(=O)/C=C/c2ccccc2)c1C(=O)c1ccc([N+](=O)[O-])cc1Cl [KC1, reference compound] | 20 | 70 | 100 | 0 | 0 | 0 | 0 | 0 | 0 | 10 | 10 | 10
Cn1nc(C2CC2)c(C(=O)c2ccc(C(F)(F)F)cc2S(C)(=O)=O)c1OC(=O)C1=CCCCC1 [KC2, reference compound] |  |  |  |  |  |  | 60 | 90 |  | 30 | 60 | 
